Test results reported in ChEMBL document CHEMBL1201862, “PubChem BioAssay data set” (2004).
The source made the active and inactive calls.

Tests used:
[1] = target: FAD-linked sulfhydryl oxidase ALR (Homo sapiens, UniProt P55789); test: inhibitors of human ALR sulfhydryl oxidase, dose response, biochemical, H2O2 detection, luminescence, cherry-pick (AID 493248)
P388/ADR = test: cells; format: functional; settings: Mus musculus
SN12K1 = test: cells; format: functional; settings: Homo sapiens
P388 = test: cells; format: functional; settings: Mus musculus
[2] = target: T1, Replicative DNA helicase DnaB (Mycobacterium tuberculosis, UniProt P9WMR3); test: DnaB intein splicing inhibitors, dose response, biochemical, cell-free fluorescence (AID 449749); format: functional
T1 sequence (P9WMR3 whole entry): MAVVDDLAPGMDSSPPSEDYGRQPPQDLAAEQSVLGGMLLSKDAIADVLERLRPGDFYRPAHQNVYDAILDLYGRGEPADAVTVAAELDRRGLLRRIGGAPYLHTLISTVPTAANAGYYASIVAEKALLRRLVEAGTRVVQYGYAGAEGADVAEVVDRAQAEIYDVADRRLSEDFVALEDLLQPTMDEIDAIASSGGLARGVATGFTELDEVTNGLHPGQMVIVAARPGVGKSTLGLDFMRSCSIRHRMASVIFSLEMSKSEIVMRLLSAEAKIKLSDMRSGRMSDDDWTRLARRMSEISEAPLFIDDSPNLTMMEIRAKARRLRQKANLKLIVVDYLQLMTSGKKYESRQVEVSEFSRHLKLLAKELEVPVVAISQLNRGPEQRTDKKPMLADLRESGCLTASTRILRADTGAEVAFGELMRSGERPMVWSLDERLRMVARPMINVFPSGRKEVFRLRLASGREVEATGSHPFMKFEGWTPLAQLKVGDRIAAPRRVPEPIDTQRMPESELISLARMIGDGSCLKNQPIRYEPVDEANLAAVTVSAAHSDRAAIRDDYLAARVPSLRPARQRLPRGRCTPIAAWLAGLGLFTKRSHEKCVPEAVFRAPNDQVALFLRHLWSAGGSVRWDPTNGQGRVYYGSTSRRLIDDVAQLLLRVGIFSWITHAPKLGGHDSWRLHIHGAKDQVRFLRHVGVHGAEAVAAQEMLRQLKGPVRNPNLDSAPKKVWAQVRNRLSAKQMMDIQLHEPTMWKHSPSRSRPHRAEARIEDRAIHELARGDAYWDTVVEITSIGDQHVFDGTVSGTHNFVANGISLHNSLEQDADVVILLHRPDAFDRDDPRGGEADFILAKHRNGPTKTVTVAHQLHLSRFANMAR

Protein RecA = target: T2, Protein RecA (Mycobacterium tuberculosis, UniProt P9WHJ3); test: Fluorescence Cell-Free Homogeneous Dose Retest to Identify Inhibitors of RecA-Intein Splicing Activity. [Related pubchem assays (depositor defined):AID2097, AID2223, AID489010, AID492950]; format: functional
T2 sequence (P9WHJ3 whole entry): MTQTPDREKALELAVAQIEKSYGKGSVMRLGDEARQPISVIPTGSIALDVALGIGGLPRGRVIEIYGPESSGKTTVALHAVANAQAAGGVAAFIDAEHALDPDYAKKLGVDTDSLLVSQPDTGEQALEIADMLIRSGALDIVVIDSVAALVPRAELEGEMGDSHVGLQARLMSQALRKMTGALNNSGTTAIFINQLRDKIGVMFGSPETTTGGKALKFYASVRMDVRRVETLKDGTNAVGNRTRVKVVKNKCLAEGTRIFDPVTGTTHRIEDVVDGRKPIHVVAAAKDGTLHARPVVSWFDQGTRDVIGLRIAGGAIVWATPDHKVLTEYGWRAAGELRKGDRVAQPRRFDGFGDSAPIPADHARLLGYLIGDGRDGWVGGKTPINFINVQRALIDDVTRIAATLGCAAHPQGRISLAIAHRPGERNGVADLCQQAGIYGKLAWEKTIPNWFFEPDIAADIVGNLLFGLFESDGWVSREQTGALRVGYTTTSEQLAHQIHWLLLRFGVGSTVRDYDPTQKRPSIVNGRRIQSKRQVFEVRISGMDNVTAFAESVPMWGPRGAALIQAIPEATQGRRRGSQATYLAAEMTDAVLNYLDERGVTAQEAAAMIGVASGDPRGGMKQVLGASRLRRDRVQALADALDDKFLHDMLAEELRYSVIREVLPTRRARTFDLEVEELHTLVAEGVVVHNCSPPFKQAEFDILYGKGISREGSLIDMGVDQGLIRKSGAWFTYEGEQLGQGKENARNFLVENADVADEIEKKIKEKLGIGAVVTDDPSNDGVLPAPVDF

Genome polyprotein = Genome polyprotein (dengue virus type 2, UniProt P29990); test: Dengue-2 NS5 methyltransferase inhibitors, primary screen, biochemical, confirmation dose response (AID 588689); format: functional
Genome polyprotein, sequence (P29990 2492-3391 limits assumed): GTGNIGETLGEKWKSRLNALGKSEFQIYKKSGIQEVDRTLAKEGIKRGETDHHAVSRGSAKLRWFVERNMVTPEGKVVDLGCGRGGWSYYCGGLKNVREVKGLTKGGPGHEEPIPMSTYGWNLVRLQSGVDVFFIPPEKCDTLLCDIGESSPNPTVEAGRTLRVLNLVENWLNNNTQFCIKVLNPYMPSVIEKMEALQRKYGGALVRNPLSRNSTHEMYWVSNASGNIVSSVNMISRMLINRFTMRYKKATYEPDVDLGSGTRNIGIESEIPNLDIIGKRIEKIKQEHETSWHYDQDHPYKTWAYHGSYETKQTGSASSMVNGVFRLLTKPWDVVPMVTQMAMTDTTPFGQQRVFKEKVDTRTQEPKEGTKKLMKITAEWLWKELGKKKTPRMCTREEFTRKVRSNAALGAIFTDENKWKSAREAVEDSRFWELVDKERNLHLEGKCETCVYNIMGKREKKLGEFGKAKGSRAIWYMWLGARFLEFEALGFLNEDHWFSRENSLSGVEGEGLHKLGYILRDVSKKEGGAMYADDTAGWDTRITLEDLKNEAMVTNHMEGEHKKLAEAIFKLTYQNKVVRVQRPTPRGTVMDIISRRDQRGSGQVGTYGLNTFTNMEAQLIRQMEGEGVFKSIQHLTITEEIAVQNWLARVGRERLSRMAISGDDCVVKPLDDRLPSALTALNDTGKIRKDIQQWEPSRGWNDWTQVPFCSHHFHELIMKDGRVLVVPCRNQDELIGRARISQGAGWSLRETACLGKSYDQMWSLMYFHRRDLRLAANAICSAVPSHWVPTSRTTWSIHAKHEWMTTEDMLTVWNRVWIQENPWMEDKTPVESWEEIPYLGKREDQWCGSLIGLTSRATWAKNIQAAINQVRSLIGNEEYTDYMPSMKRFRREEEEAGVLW

[3] = inhibitors of intracellular T. cruzi replication, confirmation, NIH3T3 host cells, beta-gal luminescence (AID 2044); format: functional, cell-based;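 also: intracellular parasites grown in NIH/3T3 mouse fibroblasts as host cells; luminescent beta-galactosidase reporter signal from transgenic T. cruzi replicating inside host cells; inhibitors lower the luminescence signal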
[4] = cytotoxicity toward NIH3T3 fibroblasts, dose response, counter-screen, cell-based, ATP luminescence, mouse fibroblasts (AID 2010); format: functional;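 also: cells exposed to compound for about 90 hours before reading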
[5] = target: T3, Polyadenylate-binding protein 1 (Homo sapiens, UniProt P11940); test: PABP1 MLLE–PAM2 interaction inhibitors, dose response, miRNA deadenylation inhibitor project, biochemical, fluorescence polarization, Cy5-PAM2 peptide, secondary (AID 602260); format: functional; settings: read-out: IC50_Mean
T3 sequence (P11940 whole entry): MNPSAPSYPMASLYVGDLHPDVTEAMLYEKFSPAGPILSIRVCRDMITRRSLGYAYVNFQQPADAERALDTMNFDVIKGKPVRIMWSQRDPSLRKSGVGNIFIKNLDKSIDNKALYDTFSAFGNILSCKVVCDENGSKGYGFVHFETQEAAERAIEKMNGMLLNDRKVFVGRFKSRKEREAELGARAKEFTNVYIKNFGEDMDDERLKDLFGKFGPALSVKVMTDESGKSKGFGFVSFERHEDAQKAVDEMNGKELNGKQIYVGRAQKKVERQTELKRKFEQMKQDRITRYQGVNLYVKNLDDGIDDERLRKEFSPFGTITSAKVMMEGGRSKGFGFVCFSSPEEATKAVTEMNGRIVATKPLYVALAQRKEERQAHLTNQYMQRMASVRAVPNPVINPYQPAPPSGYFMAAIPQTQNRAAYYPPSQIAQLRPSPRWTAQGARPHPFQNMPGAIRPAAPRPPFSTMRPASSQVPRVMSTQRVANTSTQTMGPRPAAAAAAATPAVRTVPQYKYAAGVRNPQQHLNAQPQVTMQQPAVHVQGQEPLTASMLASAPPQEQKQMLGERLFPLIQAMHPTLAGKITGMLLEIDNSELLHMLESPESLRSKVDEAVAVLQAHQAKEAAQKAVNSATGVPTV

[6] = target: T3, Polyadenylate-binding protein 1; test: PABP1 MLLE–PAM2 binding inhibitor potency, dose response, biochemical, fluorescence polarization, FITC-PAM2 peptide (AID 602259); format: functional; settings: read-out: IC50_Mean
[7] = target: T4, Rac GTPase-activating protein 1 (Homo sapiens, UniProt Q9H0H5); test: MgcRacGAP GTPase-activating activity inhibitors, confirmation, biochemical, ADP Hunter fluorescence, primary and confirmatory (AID 624330); format: functional
T4 sequence (Q9H0H5 whole entry): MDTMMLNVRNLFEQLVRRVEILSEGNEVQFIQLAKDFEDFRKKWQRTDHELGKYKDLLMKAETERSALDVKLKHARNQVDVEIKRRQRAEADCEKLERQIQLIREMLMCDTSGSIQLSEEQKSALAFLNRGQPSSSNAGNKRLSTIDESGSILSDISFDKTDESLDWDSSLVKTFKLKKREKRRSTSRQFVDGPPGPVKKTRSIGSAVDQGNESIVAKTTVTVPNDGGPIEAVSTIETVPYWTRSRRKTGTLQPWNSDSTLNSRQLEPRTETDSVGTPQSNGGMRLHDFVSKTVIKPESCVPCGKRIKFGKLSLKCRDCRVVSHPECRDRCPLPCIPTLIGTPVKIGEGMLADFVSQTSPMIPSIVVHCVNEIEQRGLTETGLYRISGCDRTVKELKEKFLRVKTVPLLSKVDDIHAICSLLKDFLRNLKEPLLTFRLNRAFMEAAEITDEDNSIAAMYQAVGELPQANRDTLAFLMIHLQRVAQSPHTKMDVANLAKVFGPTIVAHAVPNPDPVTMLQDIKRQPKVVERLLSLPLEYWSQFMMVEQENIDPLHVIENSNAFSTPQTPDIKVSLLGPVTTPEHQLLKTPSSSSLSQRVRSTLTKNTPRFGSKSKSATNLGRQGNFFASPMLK

BJ [8] = test: cytotoxicity toward BJ-TERT fibroblasts, dose response, cell-based, RAS-independent, luminescence (AID 1933); format: functional; settings: Homo sapiens
BJ [9] = test: cells; format: functional, cell-based; settings: Homo sapiens
BJ [10] = test: cytotoxicity toward BJ-TERT-LT-ST fibroblasts, dose response, cell-based, RAS-independent, luminescence (AID 1935); format: functional; settings: Homo sapiens;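 also: BJ fibroblasts immortalized with TERT plus LT and ST oncogenes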
[11] = cytotoxicity toward DRD oncogenic fibroblasts, dose response, cell-based, non-viral oncogenic, luminescence (AID 1934); format: functional; settings: Homo sapiens

FAD-linked sulfhydryl oxidase ALR, sequence (P55789 whole entry): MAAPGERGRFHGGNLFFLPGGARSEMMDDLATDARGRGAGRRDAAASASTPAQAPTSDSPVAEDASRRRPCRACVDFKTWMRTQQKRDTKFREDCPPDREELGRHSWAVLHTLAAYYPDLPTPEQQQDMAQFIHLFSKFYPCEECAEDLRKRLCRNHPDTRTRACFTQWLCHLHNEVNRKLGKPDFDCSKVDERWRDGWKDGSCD

Compound: CCN(CC)c1ccc(CNCCc2ccccc2F)cc1
- AC50 [1]: 1.36 µM (active)

Compound: CC1CCC2(C(=O)O)CCC3(C)C(=CCC4C5(C)CCC(O)C(C)(C)C5CCC43C)C2C1C (stereo not drawn)
- GI50 (P388/ADR): 2.1 µM (inactive)
- GI50 (SN12K1): 4.12 µM (inactive)
- GI50 (P388): 2.27 µM (inactive)

Compound: CC(=O)Oc1ccc(/C=C2/C(=O)N(c3ccccc3)N=C2C)cc1
- AC50 [2]: 2.76 µM (active)
- EC50 (Protein RecA): 2.72 µM (active)
- IC50 (Genome polyprotein): 56 µM (active)

Compound: N/C(=N\O)N/N=C\c1c(O)cc(O)cc1O
- GI50 (P388/ADR): 17.5 µM (inactive)
- GI50 (SN12K1): 15.7 µM (inactive)
- GI50 (P388): > 44.4 µM (inactive)

Compound: Nc1cccc(C(=O)Nc2ccc3[nH]c(-c4cccnc4)nc3c2)c1
- AC50 [1]: 1.07 µM (active)

Compound: CC/C(C)=N/Nc1nc(-c2cc3cccc(OC)c3oc2=O)cs1
- AC50 [1]: 0.091 µM (active)

Compound: O=C(O)c1ccccc1-c1ccccc1C(=O)Nc1ccc2c(c1)C(=O)c1ccccc1-2
- IC50 (Genome polyprotein): 58.9 µM (active)

Compound: COc1ccccc1NS(=O)(=O)c1cc(NC(=O)Nc2cccc(C)c2)ccc1N1CCCCC1
- EC50 [3]: 2.16 µM (active)
- EC50 [4]: > 60 µM (not active)
- IC50 [5]: > 66 µM (inactive)
- IC50 [6]: > 66 µM (inactive)

Compound: C=CCn1c2ccccc2c2c(C)c3cnccc3c(C)c21
- GI50 (P388/ADR): 11.2 µM (inactive)
- GI50 (SN12K1): 8.41 µM (inactive)
- GI50 (P388): 3.34 µM (inactive)

Compound: c1cc(-c2ccoc2)n2ccnc2c1
- IC50 [5]: > 66 µM (inactive)
- IC50 [6]: > 66 µM (inactive)

Compound: C[C@H](N)CN1CCc2ccc(Br)cc21
- AC50 [1]: 0.84 µM (active)

Compound: COc1cc(-c2ccc(/N=N/c3ccc4c(S(=O)(=O)O)cc(S(=O)(=O)O)c(N)c4c3O)c(OC)c2)ccc1/N=N/c1ccc2c(S(=O)(=O)O)cc(S(=O)(=O)O)c(N)c2c1O
- GI50 (P388/ADR): > 100 µM (inactive)
- GI50 (SN12K1): > 100 µM (inactive)
- GI50 (P388): > 100 µM (inactive)

Compound: CC1[C@@H]2CC=C3[C@H]4CCC5Cc6nc7c(nc6C[C@@]5(C)C4CC(=O)[C@]32CO[C@]12OC(C)(C)CC2O)CC1CC[C@@H]2C3=C[C@H]4O[C@@]5(O[C@@](C)(CO)C[C@@H]5O)C(C)[C@@]4(O)[C@]3(C)[C@@H](O)CC2[C@]1(C)C7 (stereo partly drawn)
- GI50 (P388/ADR): 0.00152 µM (active)
- GI50 (SN12K1): 0.000365 µM (active)
- GI50 (P388): 0.000365 µM (active)

Compound: COc1cc(/C=N/NC(=O)CCNC(=O)c2ccccc2Cl)ccc1O
- AC50 [1]: 3.1 µM (active)
- IC50 [7]: 29 µM (active)

Compound: CC(=O)Nc1ccc(Nc2ccc3c4c(cc(=O)n3C)-c3ccccc3C(=O)c24)cc1
- IC50 [5]: > 66 µM (inactive)
- IC50 [6]: 59.4 µM (inactive)

Compound: C[C@@H]1CCC2[C@](C)(CO)[C@@H](O)CC[C@]2(C)[C@@]12CC[C@@](CO)(CC(=O)O)O2 (stereo partly drawn)
- IC50 [5]: > 66 µM (inactive)
- IC50 [6]: > 66 µM (inactive)

Compound: C[C@H](NS(=O)(=O)c1ccc2c(c1)OCCCO2)C(=O)N1CCN(c2ccc(F)cc2)CC1
- IC50 [5]: > 66 µM (inactive)
- IC50 [6]: > 66 µM (inactive)

Compound: C=CC12CN(C)C3C4COC(CC41)C1(C(=O)Nc4ccccc41)C32 (stereo not drawn)
- GI50 (P388/ADR): 136 µM (inactive)
- GI50 (SN12K1): 185 µM (inactive)
- GI50 (P388): 63.1 µM (inactive)

Compound: Cc1[nH]c(=O)[nH]c(=O)c1/C=C/C(=O)NC(CO)C[S+]([O-])Cc1ccccc1 (stereo not drawn)
- GI50 (P388/ADR): > 300 µM (inactive)
- GI50 (SN12K1): > 300 µM (inactive)
- GI50 (P388): > 179 µM (inactive)

Compound: O=C1c2ccccc2OCC1/C=N/O (stereo not drawn)
- GI50 (SN12K1): 40.5 µM (inactive)
- GI50 (P388): 18.9 µM (inactive)

Compound: CCN(CC)S(=O)(=O)c1ccc(N2CCOCC2)c(NC(=O)CCC2CCCCC2)c1
- IC50 [5]: > 66 µM (inactive)
- IC50 [6]: > 66 µM (inactive)

Compound: COc1ccccc1-n1c(N)c(C(N)=O)sc1=S
- IC50 [5]: > 66 µM (inactive)
- IC50 [6]: > 66 µM (inactive)

Compound: COc1cc(/C=C(/C#N)C(N)=O)ccc1O
- GI50 (P388/ADR): > 100 µM (inactive)
- GI50 (SN12K1): > 100 µM (inactive)
- GI50 (P388): > 100 µM (inactive)

Compound: COc1ccc(NC(=O)C(=O)NCCC2CCCCN2S(=O)(=O)c2ccccc2)cc1 (stereo not drawn)
- EC50 (BJ [8]): 22.8 µM (active)
- EC50 (BJ [9]): 19.8 µM (active)
- EC50 (BJ [10]): 23.4 µM (active)
- EC50 [11]: 13.5 µM (inconclusive)

Compound: Cc1cc([N+](=O)[O-])ccc1N1C(=O)c2ccc(C(=O)Nc3ccccc3C(=O)O)cc2C1=O
- AC50 [1]: 57 µM (active)
- IC50 (Genome polyprotein): 67.9 µM (active)

Compound: CC1=C2C(O)C(C(C)C(=O)NCC(C)C)CCC2(C)C=CC1=O (stereo not drawn)
- GI50 (P388/ADR): > 100 µM (inactive)
- GI50 (SN12K1): > 100 µM (inactive)
- GI50 (P388): > 100 µM (inactive)

Compound: CCCn1cnc2cc(NCc3ccccc3O)ccc21
- AC50 [1]: 3.92 µM (active)

Compound: CCn1c(-c2cc(Br)ccc2O)n[nH]c1=S
- AC50 [1]: 4.27 µM (active)
